# Reference: patent publication US20240245806A1, “TREATMENT OF NEURODEGENERATIVE DISEASE USING CSA- AND INDY-TYPE COMPOUNDS” (BROWN UNIVERSITY, priority 2021, published 2024)
# Entries after “also recorded” stand apart in the source; their conditions may differ.
# How the values were obtained:
# zebrafish larvae = experiment: Acute exposure of 5 dpf zebrafish larvae to modulators of calcineurin signaling, automated analysis of behavior; assay type: in vivo, Danio rerio; conditions: vs DMSO
# Procedure: Zebrafish larvae were treated at 5 dpf with various modulators of calcineurin signaling, starting 3 hours before imaging. The larvae were then imaged for a total of 3 hours using a behavioral assay with various visual and acoustic stimuli (FIG. 6). The behavioral assay started with a 1-hour period without stimuli, followed by 80 minutes with visual stimuli, 10 minutes without visual or acoustic stimuli, and 30 minutes with acoustic stimuli. Values of activity (% move) and position (% up) were averaged in individual larvae during 10-minute periods, for a total of 18 periods. These values were subsequently averaged between larvae in the same treatment group. We examined a total of 10 treatment groups. For clarity, only 3 treatment groups were graphed (FIG. 6), but all 10 treatment groups were analyzed in detail as shown in subsequent figures. […] The assay provides quantitative information on activity, visually-guided behaviors and acoustic startle responses.
# To determine if larval zebrafish behavior is affected by modulation of calcineurin signaling, we imaged 5 day-old larvae in the following 10 treatment groups: 10 μM cyclosporine A (CsA), 1 μM tacrolimus (FK506), 5 or 10 μM proINDY, a combination of CsA+5 or 10 μM proINDY, or a combination of FK506+5 or 10 μM proINDY, DMSO as a vehicle control, and 1 μM rapamycin as a control for target specificity. Rapamycin and FK506 are both macrolide immunosuppressants with similar structures, however, rapamycin affects Target of Rapamycin (TOR) signaling instead of calcineurin signaling. Vellanki et al., Front Mol Biosci 7, 588913 (2020). The concentrations of CsA, FK506 and rapamycin were selected based on prior studies in zebrafish embryos and larvae. Clift et al., Behav Brain Res 282, 117-124 (2015). The two concentrations of proINDY, a membrane-permeable form of INDY (inhibitor of DYRK), were selected based on studies in cell lines and Xenopus embryos. Ogawa et al., Nat Commun 1, 86 (2010).
# The research project has been conducted in accordance with local and federal guidelines for ethical and humane use of animals and has been reviewed and approved by the Brown University Institutional Animal Care and Use Committee. Zebrafish (Danio rerio) embryos were collected and grown to larval stages as previously described. Thorn et al., Sci Rep 9, 13989 (2019). Adult wild-type zebrafish are maintained at Brown University as a genetically-diverse outbred strain in a mixed male and female population. Zebrafish embryos from 0-3 days post-fertilization (dpf) and zebrafish larvae from 3-5 dpf were maintained at 28.5° C. in 2 L culture trays with egg water, containing 60 mg/L sea salt (Instant Ocean) and 0.25 mg/L methylene blue in deionized water. Embryos and larvae were kept on a 12 hour light/12 hour dark cycle and were randomly assigned to different experimental groups prior to experimental manipulation. The sex of embryos and larvae cannot be determined at such early stages because zebrafish use elusive polygenic factors for sex determination, and both males and females have juvenile ovaries between 2.5 and 4 weeks of development. Zebrafish larvae were imaged at 5 dpf when the larvae display a range of locomotor behaviors and consume nutrients available in the yolk sac. Larvae are approximately 4 mm long at the 5 dpf stage.
# Cyclosporine (cyclosporin A, Enzo Life Sciences), FK506 (tacrolimus, Enzo Life Sciences), rapamycin (Santa Cruz Biotechnology) and proINDY (Tocris Bioscience) were diluted in egg water from 1000× stocks dissolved in dimethyl sulfoxide (DMSO). DMSO (1 μl/ml DMSO) was added to the single treatments and the corresponding DMSO concentration was used as a vehicle control for all solutions. Larvae were exposed at 5 dpf to treatment solutions or DMSO for a total of 6 hours. Larvae were first treated in a Petri dish for 2 hours, transferred with the treatment solution to white 96-well ProxiPlates (PerkinElmer, 6006290) for 1 hour, and then imaged in the treatment solution for 3 hours. […]
# [1] = test system: zebrafish embryos and larvae; experiment: Developmental exposure (2-3, 3-4 or 4-5 dpf) of zebrafish to modulators of calcineurin signaling, behavior imaged at 5 dpf; assay type: in vivo; conditions: for early activity (first hour): imaged 5 dpf
# Procedure: Zebrafish. Adult wild type zebrafish (Danio rerio) are maintained at Brown University as a genetically-diverse outbred strain in a mixed male and female population. Zebrafish embryos were collected and grown to larval stages as described previously. Thorn et al., Sci Rep 9, 13989 (2019). Embryos from 0-3 days post-fertilization (dpf) and larvae from 3-5 dpf were kept on a 12 hour light/12 hour dark cycle at 28.5° C. in 2 L culture trays with egg water, containing 60 mg/L sea salt (Instant Ocean) and 0.25 mg/L methylene blue in deionized water. Zebrafish embryos and larvae were randomly assigned to different experimental groups prior to experimental manipulation. The sex of embryos and larvae cannot be determined at such early stages because zebrafish use elusive polygenic factors for sex determination, and both males and females have juvenile ovaries between 2.5 and 4 weeks of development. Liew et al., Brief Funct Genomics 13(2), 172-187 (2014). Zebrafish larvae were imaged at 5 dpf when they are approximately 4 mm long, display a range of locomotor behaviors and consume nutrients available in the yolk sac. Clift et al., Zebrafish 11(5), 455-461 (2014).
# Pharmacological treatments. Zebrafish embryos and larvae were treated with 10 μM CsA (cyclosporin A, Enzo Life Sciences), 1 μM FK506 (tacrolimus, Enzo Life Sciences), 1 μM rapamycin (Santa Cruz Biotechnology), 5 μM proINDY (Tocris Bioscience) or co-treatments of either 10 μM CsA+5 μM proINDY or 1 μM FK506+5 μM proINDY. […] Clift et al., Behav Brain Res, 282, 117-124 (2015). […] Robinson et al., J Appl Toxicol 37(12), 1438-1447 (2017). […] All administered compounds were diluted in egg water from 1000× stocks dissolved in dimethyl sulfoxide (DMSO). The corresponding DMSO concentration (1 μl DMSO/ml egg water) was used as a vehicle control. Embryos and larvae were treated during one of the following developmental stages: 2-3, 3-4, or 4-5 dpf. The embryos and larvae were treated in 10 cm Petri dishes for 24 hours, rinsed three times with egg water, and then transferred to new Petri dishes with egg water. Larvae that were treated from 4-5 dpf were rinsed and kept in egg water for 3 hours prior to imaging, typically from 10 am to 1 pm. All treatment groups were imaged at 5 dpf in egg water. For imaging, larvae were transferred to white 96-well ProxiPlates (PerkinElmer, 6006290) and were imaged for 3 hours, typically from 1-4 pm (FIG. 12).
# Imaging of zebrafish larvae. Zebrafish larvae were imaged in a 384-well imaging system as described previously. Thorn et al., Sci Rep 9, 13989 (2019). Briefly, four 96-well ProxiPlates were placed on a glass stage inside a temperature-controlled cabinet, set at 28.5° C. The upper shelf of the cabinet holds a high-resolution camera (18-megapixel Canon EOS Rebel T6 with an EF-S 55-250 mm f/4.0-5.6 IS zoom lens), connected to a continuous power supply (Canon ACK-E10 AC Adapter) and controlled by a laptop computer. Images are acquired using Canon's Remote Capture software (EOS Utility, version 3), which is included with the camera. Every 6 seconds, the camera acquires a high-resolution image of larvae in the microplates (FIG. 12). Two small speakers (OfficeTec USB Computer Speakers Compact 2.0 System) are located speaker-side down on the glass stage. Speakers were connected by USB to the laptop computer and set to maximum volume (85 dBA).
# Behavioral assay. Larval behaviors were imaged for 3 hours, as described previously. Thorn et al., Sci Rep 9, 13989 (2019). […] The PowerPoint started with a light background for 60 minutes without visual or acoustic stimuli, followed by 80 minutes with visual stimuli, 10 minutes without stimuli, and 30 minutes with acoustic stimuli (FIG. 12). Larvae were not exposed to visual stimuli and acoustic stimuli at the same time. The visual stimuli consisted of a series of lines that moved upwards or downwards in the microplates, in a horizontal plane. […]
# transplant patients = conditions: all age groups above 65; cited from earlier work
# [2] = 5 dpf acute exposure, 10 μM CsA, 1 μM FK506, 1 μM rapamycin, proINDY
structure (smiles),measurement,setting,value
"C=CC[C@@H]1/C=C(\C)C[C@H](C)C[C@H](OC)[C@H]2O[C@@](O)(C(=O)C(=O)N3CCCC[C@H]3C(=O)O[C@H](/C(C)=C/[C@@H]3CC[C@@H](O)[C@H](OC)C3)[C@H](C)[C@@H](O)CC1=O)[C@H](C)C[C@@H]2OC [FK506, tacrolimus]",optomotor response (OMR),zebrafish larvae; 5 dpf acute exposure,decreased optomotor responses
same,early activity (first hour of imaging),zebrafish larvae; [2],increased early larval activity; also recorded: significant increase in both early and late activity
same,late activity (period 15),zebrafish larvae; [2],increased activity; also recorded: significant increase in both early and late activity
same,activity,"zebrafish larvae; 5 dpf acute exposure, 10 μM CsA, 1 μM FK506, proINDY 5 or 10 μM",increased activity
same,excitability (acoustic stimuli at 1-second intervals),zebrafish larvae; 5 dpf acute,increase in excitability; also recorded: increased excitability
same,habituation to acoustic stimuli at 1-second intervals,zebrafish larvae; 5 dpf acute,decreased habituation
same,optomotor response to red lines,"zebrafish larvae; 5 dpf acute, proINDY 5 μM",decreased optomotor responses
same,startle responses (20-second interval),"[1]; all exposure groups, vs DMSO",decrease startle responses
same,OMR Blue,[1]; exposure 2-3 dpf,decrease in OMR Blue
same,OMR Green,[1]; exposure 2-3 dpf,decrease in OMR Green
same,OMR RGB,[1]; exposure 2-3 dpf,decrease in OMR RGB
same,behavioral profile,[1]; exposure 2-3 dpf,"hyperactivity, low habituation, and low optomotor responses"
same,habituation to acoustic stimuli (1 second interval),[1]; exposure 2-3 dpf,reduced larval habituation
same,startle responses (20-second interval),[1]; exposure 2-3 dpf,strongly reduced
same,early activity (first hour),[1]; exposure 2-3 dpf,hyperactivity
same,habituation to acoustic stimuli (1 second interval),[1]; exposure 3-4 dpf,reduced larval habituation
same,late activity (period 15),[1]; exposure 3-4 dpf,substantial increases in activity
same,startle responses (20-second interval),[1]; exposure 3-4 dpf,reduced
same,early activity (first hour),[1]; exposure 3-4 dpf,hyperactivity
same,OMR Fast Red,[1]; exposure 4-5 dpf,decrease in OMR Fast Red
same,OMR Green,[1]; exposure 4-5 dpf,decrease in OMR Green
same,excitability,[1]; exposure 4-5 dpf,increases in excitability
same,habituation to acoustic stimuli (1 second interval),[1]; exposure 4-5 dpf,increased larval habituation
same,late activity (period 15),[1]; exposure 4-5 dpf,substantial increases in activity
same,development of Alzheimer's disease in treated transplant patients,transplant patients,rarely develops
